Laboratory results reported in ChEMBL document CHEMBL4400532, “Histone methyl transferases: A class of epigenetic opportunities to counter uncontrolled cell proliferation” (Eur J Med Chem, 2019).

Tests used:
HFL1 = experiment: Cytotoxicity against human HFL1 cells after 72 hrs by CCK8 assay; format: cell-based; conditions: HFL1, 72 h
A549 = experiment: Cytotoxicity against human A549 cells after 72 hrs by CCK8 assay; format: functional, cell-based; conditions: A549, 72 h
HCT-116 = experiment: Cytotoxicity against human HCT116 cells after 72 hrs by CCK8 assay; format: functional, cell-based; conditions: HCT-116, 72 h
CCD-18Co = experiment: Cytotoxicity against human CCD-18Co cells after 72 hrs by CCK8 assay; format: cell-based
PC-14 = experiment: Cytotoxicity against human PC14 cells after 72 hrs by CCK8 assay; format: functional, cell-based; conditions: PC-14, 72 h
[1] = target: Protein arginine N-methyltransferase 5 (Homo sapiens, UniProt O14744); experiment: Inhibition of PRMT5 (unknown origin)
Sequence of Protein arginine N-methyltransferase 5 (O14744 whole entry): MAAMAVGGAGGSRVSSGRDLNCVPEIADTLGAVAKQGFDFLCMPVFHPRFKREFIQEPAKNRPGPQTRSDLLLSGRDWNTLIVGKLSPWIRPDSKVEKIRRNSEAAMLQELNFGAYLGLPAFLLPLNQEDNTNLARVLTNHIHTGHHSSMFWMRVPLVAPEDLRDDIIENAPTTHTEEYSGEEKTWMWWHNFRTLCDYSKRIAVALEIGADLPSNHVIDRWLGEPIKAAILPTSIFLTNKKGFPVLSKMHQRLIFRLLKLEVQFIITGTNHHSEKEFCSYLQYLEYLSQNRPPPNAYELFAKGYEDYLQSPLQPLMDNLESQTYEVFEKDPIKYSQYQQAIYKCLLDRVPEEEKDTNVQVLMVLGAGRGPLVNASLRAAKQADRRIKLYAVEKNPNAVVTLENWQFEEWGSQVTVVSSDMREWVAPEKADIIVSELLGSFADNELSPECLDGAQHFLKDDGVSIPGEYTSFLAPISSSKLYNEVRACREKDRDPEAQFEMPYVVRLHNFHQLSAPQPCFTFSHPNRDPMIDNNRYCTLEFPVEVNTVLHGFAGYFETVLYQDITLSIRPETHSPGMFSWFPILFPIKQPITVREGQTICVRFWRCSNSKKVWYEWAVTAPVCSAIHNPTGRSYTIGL

[2] = target: T1, Histone-arginine methyltransferase CARM1 (Homo sapiens, UniProt Q86X55); experiment: Inhibition of CARM1 (unknown origin)
T1 sequence (Q86X55 whole entry): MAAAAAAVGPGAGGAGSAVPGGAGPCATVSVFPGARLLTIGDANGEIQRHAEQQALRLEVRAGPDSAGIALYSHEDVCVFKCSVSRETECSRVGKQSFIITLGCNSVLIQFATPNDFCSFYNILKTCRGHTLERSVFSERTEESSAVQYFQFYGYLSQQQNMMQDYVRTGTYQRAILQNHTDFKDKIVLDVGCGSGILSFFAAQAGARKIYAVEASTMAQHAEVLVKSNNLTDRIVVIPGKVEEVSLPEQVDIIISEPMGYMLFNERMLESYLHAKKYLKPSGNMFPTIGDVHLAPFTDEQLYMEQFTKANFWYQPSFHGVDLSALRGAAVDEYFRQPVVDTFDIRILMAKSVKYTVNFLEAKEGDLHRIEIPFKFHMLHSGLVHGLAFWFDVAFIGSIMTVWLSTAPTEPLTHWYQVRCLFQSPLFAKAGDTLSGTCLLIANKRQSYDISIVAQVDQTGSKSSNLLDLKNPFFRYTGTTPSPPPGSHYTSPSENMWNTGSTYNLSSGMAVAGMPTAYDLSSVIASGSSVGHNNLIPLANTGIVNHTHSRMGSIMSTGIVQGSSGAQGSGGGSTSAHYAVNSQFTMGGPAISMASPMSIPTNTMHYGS

[3] = target: T2, Histone-lysine N-methyltransferase EHMT2 (Homo sapiens, UniProt Q96KQ7); experiment: Inhibition of EHMT2 (unknown origin)
T2 sequence (Q96KQ7 whole entry): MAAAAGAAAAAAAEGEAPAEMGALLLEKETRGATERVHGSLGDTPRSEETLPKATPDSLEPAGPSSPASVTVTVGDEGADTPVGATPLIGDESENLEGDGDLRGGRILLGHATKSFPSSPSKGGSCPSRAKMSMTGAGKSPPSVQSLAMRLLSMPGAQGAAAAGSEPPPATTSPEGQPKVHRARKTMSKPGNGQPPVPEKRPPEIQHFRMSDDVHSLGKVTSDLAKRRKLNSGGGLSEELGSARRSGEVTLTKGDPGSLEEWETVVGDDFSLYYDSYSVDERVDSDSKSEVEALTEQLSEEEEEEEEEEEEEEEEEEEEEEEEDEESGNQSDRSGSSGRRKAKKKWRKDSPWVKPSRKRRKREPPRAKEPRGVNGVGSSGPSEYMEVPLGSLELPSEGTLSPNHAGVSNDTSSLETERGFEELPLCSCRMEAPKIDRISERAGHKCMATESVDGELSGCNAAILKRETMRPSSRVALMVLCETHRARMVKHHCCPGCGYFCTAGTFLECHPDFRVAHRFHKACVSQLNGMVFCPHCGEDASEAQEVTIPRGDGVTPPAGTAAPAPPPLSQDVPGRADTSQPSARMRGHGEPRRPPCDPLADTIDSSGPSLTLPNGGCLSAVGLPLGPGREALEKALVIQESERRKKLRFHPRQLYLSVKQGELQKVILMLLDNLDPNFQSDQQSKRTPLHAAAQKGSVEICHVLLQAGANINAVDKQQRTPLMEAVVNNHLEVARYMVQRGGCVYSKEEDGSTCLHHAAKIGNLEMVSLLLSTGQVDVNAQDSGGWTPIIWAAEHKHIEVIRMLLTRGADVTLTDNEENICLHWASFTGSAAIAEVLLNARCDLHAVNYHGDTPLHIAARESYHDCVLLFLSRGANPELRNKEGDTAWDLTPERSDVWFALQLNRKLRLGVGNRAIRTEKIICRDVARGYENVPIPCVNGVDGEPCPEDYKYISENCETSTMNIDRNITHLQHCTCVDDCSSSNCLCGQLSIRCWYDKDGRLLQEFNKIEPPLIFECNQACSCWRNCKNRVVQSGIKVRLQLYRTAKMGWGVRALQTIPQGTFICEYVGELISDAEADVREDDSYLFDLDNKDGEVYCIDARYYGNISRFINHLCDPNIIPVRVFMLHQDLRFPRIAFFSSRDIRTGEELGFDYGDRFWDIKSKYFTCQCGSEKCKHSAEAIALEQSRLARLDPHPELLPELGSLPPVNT

[4] = target: Histone-lysine N-methyltransferase EZH2 (Homo sapiens, UniProt Q15910); experiment: Inhibition of EZH2 (unknown origin)
Sequence of Histone-lysine N-methyltransferase EZH2 (Q15910 whole entry): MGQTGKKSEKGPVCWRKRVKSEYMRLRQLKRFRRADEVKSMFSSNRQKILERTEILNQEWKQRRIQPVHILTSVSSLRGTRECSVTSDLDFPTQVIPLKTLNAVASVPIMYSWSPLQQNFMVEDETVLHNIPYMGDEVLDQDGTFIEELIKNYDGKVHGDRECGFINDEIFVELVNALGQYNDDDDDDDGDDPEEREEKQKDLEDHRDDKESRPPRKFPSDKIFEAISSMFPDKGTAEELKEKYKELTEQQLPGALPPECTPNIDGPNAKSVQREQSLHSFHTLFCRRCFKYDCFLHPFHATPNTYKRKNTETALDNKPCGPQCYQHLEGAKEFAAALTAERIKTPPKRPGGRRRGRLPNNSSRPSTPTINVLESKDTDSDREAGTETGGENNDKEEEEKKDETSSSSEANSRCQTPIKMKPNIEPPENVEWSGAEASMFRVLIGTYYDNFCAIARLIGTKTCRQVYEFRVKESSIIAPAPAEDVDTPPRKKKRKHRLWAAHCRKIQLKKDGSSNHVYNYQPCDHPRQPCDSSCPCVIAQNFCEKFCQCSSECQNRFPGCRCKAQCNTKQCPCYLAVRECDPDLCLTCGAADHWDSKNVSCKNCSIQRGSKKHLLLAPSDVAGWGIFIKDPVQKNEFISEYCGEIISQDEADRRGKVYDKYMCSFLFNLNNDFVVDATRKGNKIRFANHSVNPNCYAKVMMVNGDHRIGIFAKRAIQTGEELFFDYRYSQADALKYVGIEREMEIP

[5] = target: Histone-lysine N-methyltransferase, H3 lysine-79 specific (Homo sapiens, UniProt Q8TEK3); experiment: Inhibition of DOT1L in human THP1 cells assessed as reduction in H3K79 methylation measured after 7 days; format: cell-based
Sequence of Histone-lysine N-methyltransferase, H3 lysine-79 specific (Q8TEK3 whole entry): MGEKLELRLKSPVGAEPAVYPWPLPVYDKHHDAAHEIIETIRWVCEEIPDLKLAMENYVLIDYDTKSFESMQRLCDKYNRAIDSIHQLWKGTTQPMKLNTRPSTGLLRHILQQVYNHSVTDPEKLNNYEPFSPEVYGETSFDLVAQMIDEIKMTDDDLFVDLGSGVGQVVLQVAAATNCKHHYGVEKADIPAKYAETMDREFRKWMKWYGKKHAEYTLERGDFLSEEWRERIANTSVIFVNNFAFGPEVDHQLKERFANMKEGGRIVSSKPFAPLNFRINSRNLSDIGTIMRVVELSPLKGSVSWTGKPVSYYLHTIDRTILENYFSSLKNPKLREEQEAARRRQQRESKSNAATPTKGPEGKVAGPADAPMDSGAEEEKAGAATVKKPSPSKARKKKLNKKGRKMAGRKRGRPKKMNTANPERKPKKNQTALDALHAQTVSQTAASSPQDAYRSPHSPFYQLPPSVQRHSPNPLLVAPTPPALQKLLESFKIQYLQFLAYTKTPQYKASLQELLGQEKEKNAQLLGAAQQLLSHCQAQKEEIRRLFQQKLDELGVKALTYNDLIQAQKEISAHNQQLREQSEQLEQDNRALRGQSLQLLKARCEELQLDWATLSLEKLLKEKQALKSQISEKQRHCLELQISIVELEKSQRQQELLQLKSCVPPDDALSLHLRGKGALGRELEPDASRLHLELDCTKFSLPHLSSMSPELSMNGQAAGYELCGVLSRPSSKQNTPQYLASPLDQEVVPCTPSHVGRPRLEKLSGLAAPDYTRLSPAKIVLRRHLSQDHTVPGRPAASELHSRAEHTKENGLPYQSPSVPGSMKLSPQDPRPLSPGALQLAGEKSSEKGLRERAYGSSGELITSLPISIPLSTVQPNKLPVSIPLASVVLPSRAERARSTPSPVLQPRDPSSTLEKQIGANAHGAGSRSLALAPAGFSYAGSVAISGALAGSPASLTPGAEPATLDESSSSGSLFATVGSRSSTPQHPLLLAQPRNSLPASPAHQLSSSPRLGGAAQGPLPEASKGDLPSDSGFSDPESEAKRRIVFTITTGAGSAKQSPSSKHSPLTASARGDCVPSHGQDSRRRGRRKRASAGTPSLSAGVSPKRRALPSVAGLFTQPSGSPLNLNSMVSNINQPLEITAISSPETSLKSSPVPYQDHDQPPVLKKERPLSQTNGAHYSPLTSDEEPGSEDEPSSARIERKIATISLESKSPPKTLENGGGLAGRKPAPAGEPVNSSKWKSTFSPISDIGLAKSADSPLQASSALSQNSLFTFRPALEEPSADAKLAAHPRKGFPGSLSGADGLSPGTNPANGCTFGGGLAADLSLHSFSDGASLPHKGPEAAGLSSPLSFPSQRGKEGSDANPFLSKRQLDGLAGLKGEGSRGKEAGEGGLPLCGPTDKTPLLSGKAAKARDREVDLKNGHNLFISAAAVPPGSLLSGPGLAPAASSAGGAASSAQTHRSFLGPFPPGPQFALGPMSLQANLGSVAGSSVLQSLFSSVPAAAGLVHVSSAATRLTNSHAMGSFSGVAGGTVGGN

SMILES | IC50 (HFL1) [µM] | IC50 (A549) [µM] | IC50 (HCT-116) [µM] | IC50 (CCD-18Co) [µM] | IC50 (PC-14) [µM] | IC50 [1] [µM] | IC50 [2] [µM] | IC50 [3] [µM] | IC50 [4] [µM] | IC50 [5] [µM]
COc1cc(OC)c(-c2cn3cc(NCCN)c(OC)cc3n2)cc1Cl | < 10 | < 10 | < 10 | < 10 | < 10 | – | – | – | – | –
CC(CNC(=O)Nc1ccc(C(C)(C)C)cc1)CN(C)C[C@H]1O[C@@H](n2cnc3c(N)ncnc32)[C@H](O)[C@@H]1O (stereo not given in full) | – | – | – | – | – | > 50 | > 50 | > 50 | > 50 | < 0.1
